In patent publication US10414811B2, “Protease-resistant lipidated GLP-1 analogs” (MEDIMMUNE LIMITED, priority 2015, dated 2019):
Where two headings read alike, the source gives them in different places. Numbered stars: 1 amine (or outer) side, 2 acyl side, 3 side chain; on linkers, the order of the positions; unused ones are H or OH. Square brackets hold non-standard residues; d marks the D form. Side chains are listed from the residue outwards. Peptide text beside a SMILES is read from it. * marks the point of attachment. γGlu = O=C(O)[C@H](CCC(=O)[*:2])N[*:1]; αMeF = C[C@](N)(Cc1ccccc1)C(=O)O; αMeK = C[C@](N)(CCCCN)C(=O)O; Lauroyl = CCCCCCCCCCCC(=O)*; αMeS = C[C@](N)(CO)C(=O)O; AEEA = NCCOCCOCC(=O)O; Aib = CC(C)(N)C(=O)O

Key:
Type in all cases: cell-based
Conditions in all cases: tris-lipidated peptides
[1] = target: T1, human GLP-1 receptor (GLP-1R) (Homo sapiens, UniProt P43220); assay: cAMP assay, human GLP-1R cells
T1 construct: expressed in transfected cells
T1 sequence (P43220 24-463): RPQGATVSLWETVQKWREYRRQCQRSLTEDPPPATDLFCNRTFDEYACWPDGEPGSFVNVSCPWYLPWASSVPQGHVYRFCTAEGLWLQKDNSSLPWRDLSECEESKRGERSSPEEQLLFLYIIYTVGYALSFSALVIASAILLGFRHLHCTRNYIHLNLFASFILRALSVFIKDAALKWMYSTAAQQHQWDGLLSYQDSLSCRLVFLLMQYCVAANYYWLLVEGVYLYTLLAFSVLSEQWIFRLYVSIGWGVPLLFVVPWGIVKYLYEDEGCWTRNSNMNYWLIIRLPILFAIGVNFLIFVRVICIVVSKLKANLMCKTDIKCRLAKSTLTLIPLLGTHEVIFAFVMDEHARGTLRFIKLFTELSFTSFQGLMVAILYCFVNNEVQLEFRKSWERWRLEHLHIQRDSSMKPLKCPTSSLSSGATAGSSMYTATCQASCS
Outline: (§1)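 Peptide-stimulated cAMP measured by two-step HTRF after a 30 min room-temperature incubation with receptor-expressing cells (hGLP-1R, hGIPR at 1×10^5 cells/ml; hGCGR at 2×10^5 cells/ml). Duplicate dilutions; EC50 from 4-parameter logistic fit of % Delta F.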

[2] = target: T2, human glucagon receptor (GCGR) (Homo sapiens, UniProt P47871); assay: cAMP assay, human GCGR cells
T2 construct: expressed in transfected cells
T2 sequence (P47871 26-477): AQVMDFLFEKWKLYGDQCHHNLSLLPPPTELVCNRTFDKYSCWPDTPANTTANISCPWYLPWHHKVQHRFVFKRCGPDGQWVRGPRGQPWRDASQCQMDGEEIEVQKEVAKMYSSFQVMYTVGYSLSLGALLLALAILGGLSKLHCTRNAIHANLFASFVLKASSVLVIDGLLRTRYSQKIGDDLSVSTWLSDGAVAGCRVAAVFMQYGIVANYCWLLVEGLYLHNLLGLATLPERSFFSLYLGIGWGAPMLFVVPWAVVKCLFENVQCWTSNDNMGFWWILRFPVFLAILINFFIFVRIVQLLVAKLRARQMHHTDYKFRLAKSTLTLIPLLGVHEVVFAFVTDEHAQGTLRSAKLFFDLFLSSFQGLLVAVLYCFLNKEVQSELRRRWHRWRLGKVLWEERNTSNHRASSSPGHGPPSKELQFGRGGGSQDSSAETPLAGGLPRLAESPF
Outline: as §1

[3] = target: T3, human glucose-dependent insulinotropic peptide receptor (GIPR) (Homo sapiens, UniProt P48546); assay: cAMP assay, human GIPR cells
T3 construct: expressed in transfected cells
T3 sequence (P48546 22-466): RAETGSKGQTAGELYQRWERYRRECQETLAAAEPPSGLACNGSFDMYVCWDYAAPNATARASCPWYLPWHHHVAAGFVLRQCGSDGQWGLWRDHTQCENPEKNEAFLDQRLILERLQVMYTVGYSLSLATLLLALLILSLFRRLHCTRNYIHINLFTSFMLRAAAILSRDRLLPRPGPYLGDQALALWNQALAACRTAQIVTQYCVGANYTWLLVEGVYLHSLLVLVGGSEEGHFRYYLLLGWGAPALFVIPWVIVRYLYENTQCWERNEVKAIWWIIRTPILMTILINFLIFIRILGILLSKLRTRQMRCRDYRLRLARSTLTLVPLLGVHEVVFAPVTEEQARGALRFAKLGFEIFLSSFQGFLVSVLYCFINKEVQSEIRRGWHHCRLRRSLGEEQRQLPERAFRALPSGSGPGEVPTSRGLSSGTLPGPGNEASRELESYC
Outline: as §1

[4] = mean of n1 and n2, read-out: Primary assay EC50 Mean pM GLP-1R
[5] = replicate n1, read-out: Primary assay EC50 GLP-1R n1
[6] = replicate n2, read-out: Primary assay EC50 GLP-1R n2
[7] = first replicate, read-out: Primary assay EC50 Gluc-R (n1)
[8] = first replicate, read-out: Primary assay EC50 GIP-R (n1)
[9] = second replicate, read-out: Primary assay EC50 Gluc-R (n2)
[10] = second replicate, read-out: Primary assay EC50 GIP-R (n2)

Compound	EC50 [1, 4]	EC50 [1, 5]	EC50 [1, 6]	EC50 [2, 7]	EC50 [3, 8]	EC50 [2, 9]	EC50 [3, 10]
CCCCCCCCCCCC(=O)N[C@@H](CCC(=O)NCCOCCOCC(=O)NCCOCCOCC(=O)NCCCC[C@H](NC(=O)[C@H](C)NC(=O)[C@@H](NC(=O)[C@H](Cc1ccccc1)NC(=O)[C@H](CCC(=O)O)NC(=O)[C@](C)(CCCCN)NC(=O)[C@H](C)NC(=O)[C@H](CCCCNC(=O)COCCOCCNC(=O)COCCOCCNC(=O)CC[C@H](NC(=O)CCCCCCCCCCC)C(=O)O)NC(=O)[C@H](CCC(=O)O)NC(=O)CNC(=O)[C@H](CCC(=O)O)NC(=O)[C@H](CC(C)C)NC(=O)[C@H](CCCCNC(=O)COCCOCCNC(=O)COCCOCCNC(=O)CC[C@H](NC(=O)CCCCCCCCCCC)C(=O)O)NC(=O)[C@H](CO)NC(=O)[C@](C)(CO)NC(=O)[C@@H](NC(=O)[C@H](CC(=O)O)NC(=O)[C@H](CO)NC(=O)[C@@H](NC(=O)[C@](C)(Cc1ccccc1)NC(=O)[C@H](CO)NC(=O)CNC(=O)[C@H](CCC(=O)O)NC(=O)C(C)(C)NC(=O)[C@@H](N)Cc1c[nH]cn1)[C@@H](C)O)C(C)C)[C@@H](C)CC)C(=O)N[C@H](C(=O)N[C@H](C(=O)N[C@@H](CCC(=O)O)C(=O)NCC(=O)NCC(N)=O)C(C)C)C(C)C)C(=O)O [compound 465] (H-H[Aib]EGS[αMeF]TSDV[αMeS]SK([AEEA-AEEA-γGlu-Lauroyl])LEGEK([AEEA-AEEA-γGlu-Lauroyl])A[αMeK]EFIAK([AEEA-AEEA-γGlu-Lauroyl])VVEGG-NH2)	117 pM	101 pM	133 pM	20 nM	20 nM		
CCCCCCCCCCCC(=O)N[C@@H](CCC(=O)NCCOCCOCC(=O)NCCOCCOCC(=O)NCCCC[C@H](NC(=O)CNC(=O)[C@H](CCC(=O)O)NC(=O)[C@H](CCCCNC(=O)COCCOCCNC(=O)COCCOCCNC(=O)CC[C@H](NC(=O)CCCCCCCCCCC)C(=O)O)NC(=O)[C@H](Cc1ccc(O)cc1)NC(=O)[C@H](CO)NC(=O)[C@](C)(CO)NC(=O)[C@@H](NC(=O)[C@H](CC(=O)O)NC(=O)[C@H](CO)NC(=O)[C@@H](NC(=O)[C@](C)(Cc1ccccc1)NC(=O)[C@H](CO)NC(=O)CNC(=O)[C@H](CCC(=O)O)NC(=O)C(C)(C)NC(=O)[C@@H](N)Cc1c[nH]cn1)[C@@H](C)O)C(C)C)C(=O)N[C@@H](C)C(=O)N[C@@H](C)C(=O)N[C@@](C)(CCCCN)C(=O)N[C@@H](CCC(=O)O)C(=O)N[C@@H](Cc1ccccc1)C(=O)N[C@H](C(=O)N[C@@H](C)C(=O)N[C@@H](CCCCNC(=O)COCCOCCNC(=O)COCCOCCNC(=O)CC[C@H](NC(=O)CCCCCCCCCCC)C(=O)O)C(=O)N[C@H](C(=O)N[C@H](C(=O)N[C@@H](CCC(=O)O)C(=O)NCC(=O)NCC(N)=O)C(C)C)C(C)C)[C@@H](C)CC)C(=O)O [compound 468] (H-H[Aib]EGS[αMeF]TSDV[αMeS]SYK([AEEA-AEEA-γGlu-Lauroyl])EGK([AEEA-AEEA-γGlu-Lauroyl])AA[αMeK]EFIAK([AEEA-AEEA-γGlu-Lauroyl])VVEGG-NH2)	73.5 pM	62.4 pM	84.5 pM		20 nM	20 nM	
CCCCCCCCCCCC(=O)N[C@@H](CCC(=O)NCCOCCOCC(=O)NCCOCCOCC(=O)NCCCC[C@H](NC(=O)[C@H](C)NC(=O)[C@@H](NC(=O)[C@H](Cc1ccccc1)NC(=O)[C@H](CCCCNC(=O)COCCOCCNC(=O)COCCOCCNC(=O)CC[C@H](NC(=O)CCCCCCCCCCC)C(=O)O)NC(=O)[C@](C)(CCCCN)NC(=O)[C@H](C)NC(=O)[C@H](C)NC(=O)[C@H](CCC(=O)O)NC(=O)CNC(=O)[C@H](CCC(=O)O)NC(=O)[C@H](CCCCNC(=O)COCCOCCNC(=O)COCCOCCNC(=O)CC[C@H](NC(=O)CCCCCCCCCCC)C(=O)O)NC(=O)[C@H](Cc1ccc(O)cc1)NC(=O)[C@H](CO)NC(=O)[C@](C)(CO)NC(=O)[C@@H](NC(=O)[C@H](CC(=O)O)NC(=O)[C@H](CO)NC(=O)[C@@H](NC(=O)[C@](C)(Cc1ccccc1)NC(=O)[C@H](CO)NC(=O)CNC(=O)[C@H](CCC(=O)O)NC(=O)C(C)(C)NC(=O)[C@@H](N)Cc1c[nH]cn1)[C@@H](C)O)C(C)C)[C@@H](C)CC)C(=O)N[C@H](C(=O)N[C@H](C(=O)N[C@@H](CCC(=O)O)C(=O)NCC(=O)NCC(N)=O)C(C)C)C(C)C)C(=O)O [compound 470] (H-H[Aib]EGS[αMeF]TSDV[αMeS]SYK([AEEA-AEEA-γGlu-Lauroyl])EGEAA[αMeK]K([AEEA-AEEA-γGlu-Lauroyl])FIAK([AEEA-AEEA-γGlu-Lauroyl])VVEGG-NH2; N-terminus assumed)	31.3 pM	26 pM	36.5 pM			20 nM	20 nM
CCCCCCCCCCCC(=O)N[C@@H](CCC(=O)NCCOCCOCC(=O)NCCOCCOCC(=O)NCCCC[C@H](NC(=O)[C@H](CCC(=O)O)NC(=O)[C@H](CC(C)C)NC(=O)[C@H](Cc1ccc(O)cc1)NC(=O)[C@H](CO)NC(=O)[C@H](CO)NC(=O)[C@H](CCCCNC(=O)COCCOCCNC(=O)COCCOCCNC(=O)CC[C@H](NC(=O)CCCCCCCCCCC)C(=O)O)NC(=O)[C@H](CC(=O)O)NC(=O)[C@H](CO)NC(=O)[C@@H](NC(=O)[C@](C)(Cc1ccccc1)NC(=O)[C@H](CO)NC(=O)CNC(=O)[C@H](CCC(=O)O)NC(=O)C(C)(C)NC(=O)[C@@H](N)Cc1c[nH]cn1)[C@@H](C)O)C(=O)N[C@@H](CCC(=O)O)C(=O)N[C@@H](C)C(=O)N[C@@H](C)C(=O)N[C@@](C)(CCCCN)C(=O)N[C@@H](CCC(=O)O)C(=O)N[C@@H](Cc1ccccc1)C(=O)N[C@H](C(=O)N[C@@H](C)C(=O)N[C@@H](Cc1ccccc1)C(=O)N[C@@H](CCCCNC(=O)COCCOCCNC(=O)COCCOCCNC(=O)CC[C@H](NC(=O)CCCCCCCCCCC)C(=O)O)C(=O)N[C@H](C(=O)N[C@@H](CCC(=O)O)C(=O)NCC(=O)NCC(N)=O)C(C)C)[C@@H](C)CC)C(=O)O [compound 471] (H-H[Aib]EGS[αMeF]TSDK([AEEA-AEEA-γGlu-Lauroyl])SSYLEK([AEEA-AEEA-γGlu-Lauroyl])EAA[αMeK]EFIAFK([AEEA-AEEA-γGlu-Lauroyl])VEGG-NH2)	374 pM	277 pM	470 pM	≥ 19.6 nM	≥ 19.6 nM		
CCCCCCCCCCCC(=O)N[C@@H](CCC(=O)NCCOCCOCC(=O)NCCOCCOCC(=O)NCCCC[C@H](NC(=O)[C@H](CCC(=O)O)NC(=O)CNC(=O)[C@H](CCC(=O)O)NC(=O)[C@H](CC(C)C)NC(=O)[C@H](Cc1ccc(O)cc1)NC(=O)[C@H](CO)NC(=O)[C@H](CO)NC(=O)[C@H](CCCCNC(=O)COCCOCCNC(=O)COCCOCCNC(=O)CC[C@H](NC(=O)CCCCCCCCCCC)C(=O)O)NC(=O)[C@H](CC(=O)O)NC(=O)[C@H](CO)NC(=O)[C@@H](NC(=O)[C@](C)(Cc1ccccc1)NC(=O)[C@H](CO)NC(=O)CNC(=O)[C@H](CCC(=O)O)NC(=O)C(C)(C)NC(=O)[C@@H](N)Cc1c[nH]cn1)[C@@H](C)O)C(=O)N[C@@H](C)C(=O)N[C@@](C)(CCCCN)C(=O)N[C@@H](CCC(=O)O)C(=O)N[C@@H](Cc1ccccc1)C(=O)N[C@H](C(=O)N[C@@H](C)C(=O)N[C@@H](Cc1ccccc1)C(=O)N[C@@H](CCCCNC(=O)COCCOCCNC(=O)COCCOCCNC(=O)CC[C@H](NC(=O)CCCCCCCCCCC)C(=O)O)C(=O)N[C@H](C(=O)N[C@@H](CCC(=O)O)C(=O)NCC(=O)NCC(N)=O)C(C)C)[C@@H](C)CC)C(=O)O [compound 473] (H-H[Aib]EGS[αMeF]TSDK([AEEA-AEEA-γGlu-Lauroyl])SSYLEGEK([AEEA-AEEA-γGlu-Lauroyl])A[αMeK]EFIAFK([AEEA-AEEA-γGlu-Lauroyl])VEGG-NH2; N-terminus assumed)	434 pM	399 pM	470 pM			19.6 nM	19.6 nM
CCCCCCCCCCCC(=O)N[C@@H](CCC(=O)NCCOCCOCC(=O)NCCOCCOCC(=O)NCCCC[C@H](NC(=O)[C@H](CCC(=O)O)NC(=O)[C@H](CC(C)C)NC(=O)[C@H](CCCCNC(=O)COCCOCCNC(=O)COCCOCCNC(=O)CC[C@H](NC(=O)CCCCCCCCCCC)C(=O)O)NC(=O)[C@H](CO)NC(=O)[C@](C)(CO)NC(=O)[C@@H](NC(=O)[C@H](CC(=O)O)NC(=O)[C@H](CO)NC(=O)[C@@H](NC(=O)[C@](C)(Cc1ccccc1)NC(=O)[C@H](CO)NC(=O)CNC(=O)[C@H](CCC(=O)O)NC(=O)C(C)(C)NC(=O)[C@@H](N)Cc1c[nH]cn1)[C@@H](C)O)C(C)C)C(=O)N[C@@H](CCC(=O)O)C(=O)N[C@@H](C)C(=O)N[C@@H](C)C(=O)N[C@@](C)(CCCCN)C(=O)N[C@@H](CCC(=O)O)C(=O)N[C@@H](Cc1ccccc1)C(=O)N[C@H](C(=O)N[C@@H](C)C(=O)N[C@@H](Cc1ccccc1)C(=O)N[C@@H](CCCCNC(=O)COCCOCCNC(=O)COCCOCCNC(=O)CC[C@H](NC(=O)CCCCCCCCCCC)C(=O)O)C(=O)N[C@H](C(=O)N[C@@H](CCC(=O)O)C(=O)NCC(=O)NCC(N)=O)C(C)C)[C@@H](C)CC)C(=O)O [compound 479] (H-H[Aib]EGS[αMeF]TSDV[αMeS]SK([AEEA-AEEA-γGlu-Lauroyl])LEK([AEEA-AEEA-γGlu-Lauroyl])EAA[αMeK]EFIAFK([AEEA-AEEA-γGlu-Lauroyl])VEGG-NH2)	186 pM	132 pM	239 pM	19.8 nM			19.8 nM
